Columns and labels:
Arabidopsis thaliana = assay: growth of Arabidopsis; assay type: in vivo; conditions: 0.01 μM drench every two days for one month
Description: (§1) FIG. 12: Effect of purified HYTLO1 on the growth of Arabidopsis (A), percentage seed germination of cucumber (B) and plantlet development of Lotus japonicus (C). A: Arabidopsis thaliana (Columbia-0: Col-0) seeds were sown in Levington's F2 compost plus sand (JFC Munro, Devon; http://www.jfcmonro.com) and chilled for 2 days at 4° C. Plants were grown under short-day conditions (10 h light) in a controlled environment chamber, at 22° C. during the day and 18° C. at night with 60% relative humidity for 5-6 weeks before transplanting. Ten ml of sterile solutions of HYTLO1 were drenched every two days at concentrations 0.072 μg/ml (0.01 μM) for one month in each pot containing 100 ml of soil and 1 Arabidopsis plant. Untreated plants were used as controls. B: Sterile cucumber seeds were placed on magenta box containing half-strength Murashige and Skoog salt (MS) medium (ICN Biomedicals) containing 1% agar and 1.5% sucrose, adjusted to pH 5.7, and vernalized for 2 days at 4° C. in the absence of light. A sterile solutions of HYTLO1 was added to the substrate at final concentration of 10^−8 M before the solidification of agar. C: The same concentration of HYTLO1 was used in the agarized medium used for the L. japonicus test. […]

cucumber = assay: combined application of HYTLO1 and Trichoderma spp. strains on cucumber growth promotion; assay type: in vivo; conditions: 20 days after seed coating
Description: The results are shown in Table 2 and expressed in terms of increased stem and root length or fresh/dry weight. Cucumber seeds were coated with the purified molecule solutions and/or spore suspension, transferred into Petri dishes and left to germinate on humid filter paper. Germinated seedlings were transplanted into pots containing sterilised soil. Other two treatments with the purified molecules were performed at 7 days interval, by drenching the soil with the solutions at the final concentrations of 10^−8M for HYTLO1, and 1 ml of a 10^7 spore/ml suspension per 10 ml soil. In two-compounds application, half dose of each molecule was used. Each treatments was performer on at least 8 plants, and results were collected 20 days after seed coating. This experiment confirmed the beneficial effect exerted by HYTLO1 alone and in combination with Trichoderma species on plant growth. […] In particular, and only as an example, combined treatment with T. harzianum T22+HYTLO1, and T. harzianum strain TH1+HYTLO1 determined a significant increase in plant growth promotion effect of up to 33% more compared to controls (synergistic results as by the Limpel's formula are underlined in the Table).

Botrytis cinerea = assay: spore germination in Potato Dextrose Broth; assay type: cell-based; conditions: 5 μM HYTLO1, 25° C., 24 hours, PDB
Description: (§2) FIG. 3: HYTLO1 antifungal activity. Spore of the pathogens Botrytis cinerea and Alternaria spp. and of the biocontrol agent Trichoderma harzianum strain MK1-KV966 were germinated at 25° C. for 24 hours in Potato Dextrose Broth (PDB) containing 5 μM of HYTLO1 and compared with those germinated in PDB plus the same solvent as the control.

Alternaria spp. = assay: spore germination in Potato Dextrose Broth; assay type: cell-based; conditions: 5 μM HYTLO1, 25° C., 24 hours, PDB
Description: as §2

Cucumis sativus = assay: seed germination of cucumber on MS agar; assay type: in vivo; conditions: 10^−8 M in agar medium
Description: as §1

tomato plants = assay: tomato plant growth, watering and spraying; assay type: in vivo; conditions: 0.01 μM, once per week for one month; vs T. harzianum T22, GERMON E and untreated control
Excerpt: FIG. 10: Effect of HYTLO1 on tomato plant growth as compared to treatment with T. harzianum strain T22 or the Commercial product GERMON E (G-E) base on the auxin 1-naphthaleneacetic acid, commercialized by L. Gobbi, Italy. (A) Growth increase of root and stem of HYTLO1 vs. water control, GERMON E or T22, 10 days after treatment. (B) Increase of root development (HYTLO1 treatment on the left, untreated control on the right), (C) Effect of HYTLO1 on plant size compared to T22. (D) Effect of HYTLO1 on root development compared to water control, T22, GERMON E (also in combination with HYTLO1). HYTLO1 was applied at final concentration in the soil at 10^−8 M.
FIG. 11: Effect of purified HYTLO1 on tomato plants, applied by drench on the roots or by spraying on the leaves. For the irrigation, 50 ml of a solution containing 0.072 μg/ml of HYTLO1 (0.01 μM) were applied for each pot containing 1 litre of soil and 2 tomato plants, for a total of 4 applications. For foliar application, 20 ml of a solution containing 0.072 μg/ml (0.01 μM) of HYTLO1 were sprayed for each pot containing 2 tomato plants for a total of 4 applications. […]

Lotus japonicus = assay: plantlet development of Lotus japonicus; assay type: in vivo; conditions: 10^−8 M in agarized medium
Description: as §1

tomato = tomato root development (seeds, cuttings); assay type: in vivo
Description: FIG. 9: Effect of purified HYTLO1 application on tomato plant and root development. Tomato roots (left) and tomato cuttings (right) were dipped in a HYTLO1 solution of 0.018 μM.
In order to investigate the effect of HYTLO1 on the development of plants, either at the level of seed germination, germling formation and survival, root formation, stem elongation and thickness, foliar development, as well as general plant size, various experiments were performed with the purified protein. […] The protein clearly stimulated rhizogenesis on different plants. […] Experiments on plants were performed in vivo by watering and spraying tomato plants with a HYTLO1 0.01 μM solution as described in the legend of FIG. 10. In these experiments, the effect of HYTLO1 was also compared with that of the commercial biocontrol strain T. harzianum T22 (applied as spore suspension according the typical application rate of commercial products) and that of the germinating hormone 1-naphthaleneacetic acid (GERMON E—produced by L. Gobbi, Italy) (applied at the typical application rate of commercial products). Applications were made once per week for one month by watering the tomato plants. Results, expressed in terms of plant height and length, root length and weight, number of leaves, stem diameter and weight, are combined and shown in FIG. 10 and FIG. 11.

B. cinerea = assay: ELISA-based inhibition assay of B. cinerea growth; assay type: cell-based, Botrytis cinerea; conditions: compared to hydrophobins from T. harzianum strains T22 and M10
Excerpt: FIG. 4. Antifungal effect of HYTLO1 on B. cinerea growth compared to similar hydrophobins purified from T. harzianum strain T22 and T. harzianum strain M10. Assay protocol is described in Lorito M. et al. 1994. Microbiology UK, 140:623-629. Numbers on the left side indicate micro molar concentration of HYTLO1 used. T22 and M10=hydrophobin from strain T22 and M10, respectively. The inhibition of the pathogen colony is indicated by the reduced intensity of the dark color in the wells compared to control (C).

HYTLO1: about 7 KDa Type II hydrophobin protein from Trichoderma longibrachiatum strain MK1, 71 aa, SEQ ID NO: 1
growth promotion effect (Arabidopsis thaliana): confirmed | plant height (cm), percentage increase compared to water control (cucumber; 10^−8M HYTLO1, 10^7 spore/ml, half dose in combinations, SD +− 1.5): 1.8% | Root length (cm), percentage increase compared to water control (cucumber; SD +− 2.0): 8.5% | Plant fresh weight (g), percentage increase compared to water control (cucumber; SD +− 2.8): 4.2% | Plant dry weight (g), percentage increase compared to water control (cucumber; SD +− 3.1): 7.3% | effect on germination of spores (Botrytis cinerea): direct inhibitory effect | effect on germination of spores (Alternaria spp.): direct inhibitory effect | growth promotion effect (percentage seed germination) (Cucumis sativus): confirmed | growth parameters (plant height and length, root length and weight, number of leaves, stem diameter and weight) (tomato plants): increased all of the growth parameters | growth promotion effect (plantlet development) (Lotus japonicus): confirmed | concentration promoting root growth and development (tomato; assays on cuttings): ≥ 0.31 µM | de novo root formation on tomato cuttings (tomato; cuttings dipped in 0.075 and 0.018 μM, after 15 days, no roots in controls): formed de novo roots | root apparatus of plantlets vs untreated control (tomato; tomato seeds germinated with HYTLO1 10^−6 to 10^−9 M, data not shown): more than double | antifungal effect on B. cinerea growth (B. cinerea): strong antifungal effect
